# How the values were obtained:
# NMDA receptor [1] = assay: Antagonism of NMDA-induced depolarization of rat cortical wedges; format: cell-based; conditions: NMDA 40 μM, mean ± standard error (n = 3), read-out: IC50 NMDA, antagonism of cortical wedge depolarization
# Method: (§1) The depolarization of rat cortical wedges was used to test the selectivity and potency of the formula I compounds as AMPA antagonists using a technique similar to that described by Harrison and Simmonds. Harrison and Simmonds, Bri. J. Pharmacol., 84, 381-391 (1984). Generally, 4-ml aliquots of NMDA (40 μM), AMPA (40 μM), and kainate (10 μM) were superfused (2 ml/min.) on the grey matter at intervals of 15-20 minutes until stable responses were attained. The tissue was then exposed for 15 minutes to various concentrations of the formula I compounds before retesting the agonists. The IC50 values were calculated from linear regression of log dose-response curves, each point the mean of at least three observations on separate slices from more than one animal.
# AMPA receptor [2] = assay: Radioligand binding: [^3 H]AMPA binding with crude membranes of rat forebrain
# Method: (§2) The formula I compounds were tested for their ability to inhibit NMDA, AMPA, and kainic acid receptor binding to rat membranes in a radioligand binding assay using [^3 H]CGS19755, [^3 H]AMPA, and [^3 H]KA. For all radioligand binding assays, male Sprague-Dawley rats were used. […] Non-specific binding was determined using 10 μM L-glutamate. Samples were incubated in an ice-bath for 30 minutes, and bound ligand was separated from the free ligand by rapid filtration through WHATMAN GF/B glass fiber filters. Murphy et al, British J. Pharmacol., 95, 932-938 (1988). Kainate binding was performed using washed synaptosomal membranes from the rat forebrain as described by Simon et al. Simon et al, J. Neurochem., 26, 141-147 (1976). Tritiated kainate (5 nM) was added to 50 mM Tris-HCl buffer (pH 7.4 at 4° C.) containing 200-300 μg/ml of tissue protein. Samples were incubated for 30 minutes in an ice-bath, then rapidly filtered using a Brandel cell harvester and WHATMAN GF/C filters. Filters were washed twice with 3 ml of cold buffer. Non-specific binding was determined using 100 μM non-labeled kainate. The binding of [^3 H]AMPA (5 nM) was conducted with crude membranes of rat forebrain in the presence of 100 mM KSCN as described by Nielson et al. Nielson et al, Eur. J. Med. Chem. Chim. Ther., 21, 433-437 (1986). Non-specific binding was determined with 10 μM non-labeled AMPA. The concentration of the formula I compound that inhibited 50% binding (IC50, mean ±standard error, n=3) as calculated by linear regression of displacement data transformed to the Hill equation as described by Bennett. Bennett, Neurotransmitter Receptor Binding, 57-90 (1978).
# NMDA receptor [3] = assay: Radioligand binding: displacement of [^3 H]CGS19755 from synaptosomal membranes of rat forebrain (NMDA receptor affinity); conditions: [^3 H]CGS19755 10 nM, mean ± standard error (n = 3), values marked ^c single experiment
# Method: as §2
# [4] = target: kainic acid (KA) receptor; assay: Radioligand binding: tritiated kainate binding with washed synaptosomal membranes from the rat forebrain; conditions: tritiated kainate 5 nM, pH 7.4, mean ± standard error (n = 3), values marked ^c single experiment
# Method: as §2
# AMPA receptor [5] = assay: Antagonism of AMPA-induced depolarization of rat cortical wedges; format: cell-based
# Method: as §1
# [6] = test system: kainic acid (KA) receptor; assay: Antagonism of kainate-induced depolarization of rat cortical wedges; format: cell-based; conditions: kainate 10 μM, mean ± standard error (n = 3)
# Method: as §1
# AMPA receptor [7] = conditions: cited: LaPeillet et al.; cited from earlier work
# AMPA receptor [8] = conditions: cited: Sheardown et al.; Buchan et al.; LePeillet et al.; cited from earlier work
# [9] = Table I, racemic, [^3 H]AMPA 5 nM, 100 mM KSCN, mean ± standard error (n = 3), values marked ^c single experiment, read-out: IC50 AMPA, receptor binding
# [10] = Table III; racemic; AMPA 40 μM; mean ± standard error (n = 3); read-out: IC50 AMPA, antagonism of cortical wedge depolarization
# [11] = text summary of Table I, racemic, read-out: selectively displaced ^3 H-AMPA with IC50 values
# [12] = Table III; cortical wedge; racemic
# [13] = Table II, enantiopure, [^3 H]AMPA 5 nM, 100 mM KSCN, mean ± standard error (n = 3), values marked ^c single experiment, read-out: IC50 AMPA, receptor binding
# [14] = Table IV; enantiopure; AMPA 40 μM; mean ± standard error (n = 3); read-out: IC50 AMPA, antagonism of cortical wedge depolarization
"IC50 (NMDA receptor [1]; Table IV, enantiopure) [µM]",IC50 (AMPA receptor [2]; [13]) [µM],"IC50 (NMDA receptor [3]; Table II, enantiopure) [µM]","IC50 KA, receptor binding ([4]; Table II, enantiopure) [µM]","IC50 KA, antagonism of cortical wedge depolarization ([6]; Table IV, enantiopure) [µM]",SMILES,"IC50 (NMDA receptor [1]; Table III, racemic) [µM]",IC50 (AMPA receptor [2]; [9]) [µM],"IC50 (NMDA receptor [3]; Table I, racemic) [µM]","IC50 KA, receptor binding ([4]; Table I, racemic) [µM]",IC50 (AMPA receptor [5]; [10]) [µM],"IC50 KA, antagonism of cortical wedge depolarization ([6]; Table III, racemic)",also measured
22.9 ± 3.8,0.58 ± 0.03,16.3,12.5,> 31.6,O=C(O)[C@@H]1C[C@H]2C[C@@H](CSc3nn[nH]n3)CC[C@H]2CN1 [Compound 23],,,,,,,IC50 (AMPA receptor [5]; [14]): 1.35 ± 0.35 µM
> 100,21.9,> 10,> 100,> 31.6,O=C(O)[C@H]1C[C@@H]2C[C@H](CSc3nn[nH]n3)CC[C@@H]2CN1 [Compound 24],,,,,,,IC50 (AMPA receptor [5]; [14]): 19.8 ± 2.2 µM
> 100,17.8,> 100,27.9,29.1 ± 4.3,"O=C(O)[C@@H]1C[C@H]2C[C@H](CSc3nn[nH]n3)CC[C@H]2CN1 [Compound 25, (3S,4aR,6R,8aR)-6[2(1(2)H-Tetrazole-5-yl)-2-thiaethyl]decahydroisoquinoline-3-carboxylic Acid]",,,,,,,IC50 (AMPA receptor [5]; [14]): 9 ± 0.8 µM

# The remaining lines, values behind:
SMILES,"IC50 (NMDA receptor [1]; Table IV, enantiopure) [µM]",IC50 (AMPA receptor [2]; [13]) [µM],"IC50 (NMDA receptor [3]; Table II, enantiopure) [µM]","IC50 KA, receptor binding ([4]; Table II, enantiopure) [µM]","IC50 KA, antagonism of cortical wedge depolarization ([6]; Table IV, enantiopure) [µM]","IC50 (NMDA receptor [1]; Table III, racemic) [µM]",IC50 (AMPA receptor [2]; [9]) [µM],"IC50 (NMDA receptor [3]; Table I, racemic) [µM]","IC50 KA, receptor binding ([4]; Table I, racemic) [µM]",IC50 (AMPA receptor [5]; [10]) [µM],"IC50 KA, antagonism of cortical wedge depolarization ([6]; Table III, racemic)",also measured
"O=C(O)[C@@H]1C[C@H]2C[C@H](CCS(=O)(=O)O)CC[C@H]2CN1 (racemic) [Compound 12, (3SR,4aRS,6RS,8aRS)-6-(2-Sulfoethyl)decahydroisoquinoline-3-carboxylic Acid]",,,,,,> 100,11.1,61.8,> 100,31.4 ± 1.7,100 µM,
"O=C(O)[C@@H]1C[C@H]2C[C@@H](CCc3cc(O)no3)CC[C@H]2CN1 (racemic) [Compound 13, (3SR,4aRS,6RS,8aRS)-6-[2-(3-Hydroxyisoxazole-5-yl)ethyl]decahydroisoquinoline-3-carboxylic Acid]",,,,,,> 100,13.8 ± 1.24,> 100,> 100,16.5 ± 2.7,> 100 µM,IC50 (AMPA receptor [2]; [11]): < 15 µM; selective AMPA receptor antagonism (in words) (AMPA receptor [5]; [12]): selective AMPA receptor antagonists
"O=C(O)[C@@H]1C[C@H]2C[C@@H](CSc3ncn[nH]3)CC[C@H]2CN1 (racemic) [Compound 14, (3SR,4aRS,6SR,8aRS)-6-[2-(1(2-4)H-1,2,4-Triazol-5-yl)-2-thiaethyl]decahydroisoquinoline-3-carboxylic Acid]",,,,,,> 100,> 10,> 10,> 10,68.8 ± 12.3,> 100 µM,
"O=C(O)[C@@H]1C[C@H]2C[C@@H](CS(=O)(=O)c3ncn[nH]3)CC[C@H]2CN1 (racemic) [Compound 15, (3SR,4aRS,6SR,8aRS)-6-[(1(2-4)H-1,2,4-Triazole-5-yl)sulfonylmethyl]decahydroisoquinoline-3-carboxylic Acid]",,,,,,> 100,1.67 ± 0.14,> 100,> 100,2.16 ± 0.79,Ca. 10 μM,IC50 (AMPA receptor [2]; [11]): < 15 µM; selective AMPA receptor antagonism (in words) (AMPA receptor [5]; [12]): selective AMPA receptor antagonists
"O=C(O)[C@@H]1C[C@H]2C[C@@H](C=Cc3nsnc3O)CC[C@H]2CN1 (racemic) [Compound 20, (3SR,4aRS,6SR,8aRS)-6-[2-(3-Hydroxy-1,2,5-thiadiazole-4-yl)ethenyl]decahydroisoquinoline-3-carboxylic Acid]",,,,,,> 100,83.4,> 100,> 100,100,> 100 µM,
"O=C(O)[C@@H]1C[C@H]2C[C@@H](C(Cc3nn[nH]n3)c3ccccc3)CC[C@H]2CN1 (stereo partly drawn) [Compound 19, (3SR,4aRS,6RS,8aRS)-6-[2-(1(2)H-Tetrazole-5-yl)-1-phenylethyl]decahydroisoquinoline-3-carboxylic Acid]",,,,,,100,6.58,13.8,> 100,9 ± 2.8,23.6 ± 5.6 µM,IC50 (AMPA receptor [2]; [11]): < 15 µM; selective AMPA receptor antagonism (in words) (AMPA receptor [5]; [12]): selective AMPA receptor antagonists
"O=C(O)[C@@H]1C[C@H]2C[C@@H](CCc3nn[nH]n3)CC[C@H]2CN1 [Compound 21, (3S,4aR,6R,8aR)-(-)-6-[2-(1(2)H-Tetrazole-5-yl)ethyl]decahydroisoquinoline-3-carboxylic Acid]",< 100,1.35 ± 0.13,12.1 ± 2,28.1 ± 1.7,< 100,,,,,,,"IC50 (AMPA receptor [5]; read-out: IC50 AMPA, antagonism of cortical wedge depolarization; Table IV; enantiopure; AMPA 40 μM; mean ± standard error (n = 3)): 1.78 ± 0.23 µM"
CC1=NN=C(c2ccc(N)cc2)c2cc3c(cc2C1)OCO3 [GKYI 52466],,,,,,,,,,,,neuroprotection in rat global ischemia (in words) (AMPA receptor [7]): effective neuroprotective agent in rat global ischemia models
"NS(=O)(=O)c1cccc2c1c([N+](=O)[O-])cc1nc(O)c(O)nc12 [NBQX, 2,3-dihydroxy-6-nitro-7-sulfamoylbenzo[f]quinoxaline]",,,,,,,,,,,,prevention of global and focal ischemic damage (in words) (AMPA receptor [8]): effective in preventing global and focal ischemic damage

# — patent US5399696A, “Isoquinolinyl compounds which are intermediates” (Eli Lilly and Company, priority 1993, dated 1995)
